Source: US8551991B2, “1,2,3,4-tetrahydroquinoxaline derivative having glucocorticoid receptor binding activity” (Santen Pharmaceutical Co., Ltd., priority 2006, dated 2013)

target: T1, Recombinant human GR (Homo sapiens, UniProt P04150); experiment: GR competitor assay by fluorescence polarization (binding activity to glucocorticoid receptor); conditions: 20 μM test compound solution, 25 μL per well plus 12.5 μL each of 4×GS1 and 4×GR solution; Fluormone GS1 ligand; positive control 2 mM dexamethasone; read-out: GR Binding ratio (%)
T1 construct: purchased Invitrogen P2816
T1 sequence (P04150 1-777): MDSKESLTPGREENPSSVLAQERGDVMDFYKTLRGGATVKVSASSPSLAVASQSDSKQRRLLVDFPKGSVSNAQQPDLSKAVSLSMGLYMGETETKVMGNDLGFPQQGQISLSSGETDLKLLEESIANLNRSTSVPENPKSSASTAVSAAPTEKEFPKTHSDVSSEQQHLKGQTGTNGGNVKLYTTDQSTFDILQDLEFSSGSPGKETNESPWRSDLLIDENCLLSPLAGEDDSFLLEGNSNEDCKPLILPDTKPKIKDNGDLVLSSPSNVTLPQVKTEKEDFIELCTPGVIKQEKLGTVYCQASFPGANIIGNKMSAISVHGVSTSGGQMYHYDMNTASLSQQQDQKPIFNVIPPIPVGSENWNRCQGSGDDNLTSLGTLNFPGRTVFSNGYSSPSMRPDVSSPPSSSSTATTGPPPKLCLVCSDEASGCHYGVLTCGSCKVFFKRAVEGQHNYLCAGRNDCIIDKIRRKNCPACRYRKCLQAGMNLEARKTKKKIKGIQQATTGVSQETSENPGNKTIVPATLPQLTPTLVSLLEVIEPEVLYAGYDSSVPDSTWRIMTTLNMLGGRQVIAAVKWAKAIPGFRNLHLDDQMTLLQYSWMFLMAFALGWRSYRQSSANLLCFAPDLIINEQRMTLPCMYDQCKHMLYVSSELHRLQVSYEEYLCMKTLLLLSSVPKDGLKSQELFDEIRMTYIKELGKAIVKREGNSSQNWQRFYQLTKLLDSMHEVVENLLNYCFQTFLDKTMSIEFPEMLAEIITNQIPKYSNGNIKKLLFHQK
Description: 1. Evaluation Test for Binding Activity to Glucocorticoid Receptor (Hereinafter Referred to as “GR”)
In order to evaluate a binding activity to GR, a receptor competitor assay was carried out by a fluorescence polarization method. In the assay, a GR competitor assay kit (manufactured by Invitrogen, cat No. P2816) was used, and a procedure was carried out according to the protocol attached to the kit. Hereinafter, the specific method will be described.
GR screening buffer: A buffer containing 10 mM potassium phosphate (pH 7.4), 20 mM sodium molybdate (Na2MoO4), 0.1 mM ethylene diamine tetraacetic acid (EDTA), 5 mM dithiothreitol (DTT), 0.1 mM stabilizing peptide and 2% dimethylsulfoxide was prepared.
4×GS1 solution: Fluormone™ GS1, which is a fluorescent glucocorticoid ligand, was diluted with GR screening buffer, whereby a 4 nM solution was prepared.
4×GR solution: Recombinant human GR was diluted with GR screening buffer, whereby a 16 nM solution was prepared.
After a test compound was dissolved in dimethylsulfoxide, the resulting solution was diluted with GR screening buffer, whereby a 20 μM test compound solution was prepared.
1) The test compound solution was added in an amount of 25 μL into each well of a 96-well plate, and then, 4×GS1 solution and 4×GR solution were added in an amount of 12.5 μL into each well, respectively.
2) The plate was incubated in a dark place at room temperature for 2 to 4 hours.
3) By using a multimode plate reader, Analyst™ HT (manufactured by LJL Biosystems), fluorescence polarization of each well was measured. As the blank, a well containing GR screening buffer in place of the test compound and 4×GS1 solution was used.
4) The same procedure as that in the above 1) to 3) was carried out except that GR screening buffer was used in place of the test compound solution, and the obtained result was taken as the negative control.
5) The same procedure as that in the above 1) to 3) was carried out except that 2 mM dexamethasone was used in place of the test compound solution, and the obtained result was taken as the positive control.
A GR binding ratio (%) was calculated from the following equation.
GR binding ratio (%)=100×[1-(fluorescence polarization of test compound solution-fluorescence polarization of positive control solution)/(fluorescence polarization of negative control solution—fluorescence polarization of positive control solution)]

| Compound | inhibition at 10 µM [%] |
| --- | --- |
| COC(=O)Oc1ccc(-c2ccc3c(c2COc2cc(F)ccc2C)N(C)C(=O)C(C)(C)N3)c(OC)c1 [Compound 14-35] | 93 |
| COc1cc(OC(=O)Oc2ccccc2)ccc1-c1ccc2c(c1COc1cc(F)ccc1C)N(C)C(=O)C(C)(C)N2 [Compound 14-36] | 88 |
| COc1cc(NC(=O)Oc2ccccc2)ccc1-c1ccc2c(c1COc1cc(F)ccc1C)N(C)C(=O)C(C)(C)N2 [Compound 14-37] | 93 |
| COc1cc(OC(=O)c2ccccc2F)ccc1-c1ccc2c(c1COC(=O)c1ccc(C)s1)N(C)C(=O)C(C)(C)N2 [Compound 14-44] | 100 |
| COC(=O)c1cccc(C(=O)Oc2ccc(-c3ccc4c(c3COc3cc(F)ccc3C)N(C)C(=O)C(C)(C)N4)c(OC)c2)c1 [Compound 15-1, 8-(5-Fluoro-2-methylphenoxymethyl)-7-[2-methoxy-4-(3-methoxycarbonylbenzoyloxy)phenyl]-1,3,3-trimethyl-3,4-dihydro-1H-quinoxalin-2-one] | 100 |
| COc1cc(OC(=O)c2cccnc2C)ccc1-c1ccc2c(c1COc1cc(F)ccc1C)N(C)C(=O)C(C)(C)N2 [Compound 15-2] | 100 |
| COc1cc(OC(=O)c2ccccc2OC(C)=O)ccc1-c1ccc2c(c1COc1cc(F)ccc1C)N(C)C(=O)C(C)(C)N2 [Compound 15-4] | 98 |
| COc1cc(OC(=O)c2ccccc2SC)ccc1-c1ccc2c(c1COc1cc(F)ccc1C)N(C)C(=O)C(C)(C)N2 [Compound 15-6] | 100 |
| COc1cc(OC(=O)c2ccc(C)nc2)ccc1-c1ccc2c(c1COc1cc(F)ccc1C)N(C)C(=O)C(C)(C)N2 [Compound 15-9] | 100 |
| COc1cc(OC(=O)c2cocn2)ccc1-c1ccc2c(c1COc1cc(F)ccc1C)N(C)C(=O)C(C)(C)N2 [Compound 15-11] | 100 |
| COc1cc(OC(=O)c2cccc(C(C)=O)c2)ccc1-c1ccc2c(c1COc1cc(F)ccc1C)N(C)C(=O)C(C)(C)N2 [Compound 15-13] | 100 |
| COc1cc(OC(=O)c2sccc2Cl)ccc1-c1ccc2c(c1COc1cc(F)ccc1C)N(C)C(=O)C(C)(C)N2 [Compound 15-17] | 95 |
| COc1cc(OC(=O)c2cccnc2OC)ccc1-c1ccc2c(c1COc1cc(F)ccc1C)N(C)C(=O)C(C)(C)N2 [Compound 15-22] | 100 |
| COc1cc(OC(=O)c2ccccc2SC)ccc1-c1ccc2c(c1COC(=O)c1ccc(C)s1)N(C)C(=O)C(C)(C)N2 [Compound 15-24] | 94 |
| COc1cc(N(C)C(C)=O)ccc1-c1ccc2c(c1COc1cc(F)ccc1C)N(C)C(=O)C(C)(C)N2 [Compound 16-3, 7-[4-(N-Acetyl-N-methylamino)-2-methoxyphenyl]-8-(5-fluoro-2-methylphenoxymethyl)-1,3,3-trimethyl-3,4-dihydro-1H-quinoxalin-2-one] | 86 |
| COc1cc(OC(=O)Nc2cccnc2)ccc1-c1ccc2c(c1COc1cc(F)ccc1C)N(C)C(=O)C(C)(C)N2 [Compound 17-5, 8-(5-Fluoro-2-methylphenoxymethyl)-7-[2-methoxy-4-(pyridin-3-ylaminocarbonyloxy)phenyl]-1,3,3-trimethyl-3,4-dihydro-1H-quinoxalin-2-one] | 91 |
| COc1cc(OC(=O)Nc2ccccc2)ccc1-c1ccc2c(c1COC(=O)c1ccc(C)s1)N(C)C(=O)C(C)(C)N2 [Compound 17-16, 7-(2-Methoxy-4-phenylaminocarbonyloxyphenyl)-8-(5-methylthiophen-2-ylcarbonyloxymethyl)-1,3,3-trimethyl-3,4-dihydro-1H-quinoxalin-2-one] | 88 |
| COc1cc(OC(=O)N2CCOCC2)ccc1-c1ccc2c(c1COc1cc(F)ccc1C)N(C)C(=O)C(C)(C)N2 [Compound 18-1, 8-(5-Fluoro-2-methylphenoxymethyl)-7-[2-methoxy-4-(morpholin-4-ylcarbonyloxy)phenyl]-1,3,3-trimethyl-3,4-dihydro-1H-quinoxalin-2-one] | 100 |
| COc1cc(OC(=O)N(C)C)ccc1-c1ccc2c(c1COc1cc(F)ccc1C)N(C)C(=O)C(C)(C)N2 [Compound 18-2, 7-(4-Dimethylaminocarbonyloxy-2-methoxyphenyl)-8-(5-fluoro-2-methylphenoxymethyl)-1,3,3-trimethyl-3,4-dihydro-1H-quinoxalin-2-one] | 99 |
| COc1ccccc1NCc1c(-c2ccc(O)cc2OC)ccc2c1N(C)C(=O)C(C)(C)N2 [Compound 21-3, 7-(4-Hydroxy-2-methoxyphenyl)-8-(2-methoxyphenylaminomethyl)-1,3,3-trimethyl-3,4-dihydro-1H-quinoxalin-2-one] | 100 |
| CCCC(=O)Oc1ccc(-c2ccc3c(c2CNc2ccccc2OC)N(C)C(=O)C(C)(C)N3)c(OC)c1 [Compound 21-5, 7-(4-Butyryloxy-2-methoxyphenyl)-8-(2-methoxyphenylaminomethyl)-1,3,3-trimethyl-3,4-dihydro-1H-quinoxalin-2-one] | 98 |
| COc1ccccc1NCc1c(-c2ccc(OC(=O)c3cccnc3C)cc2OC)ccc2c1N(C)C(=O)C(C)(C)N2 [Compound 21-12, 7-[2-Methoxy-4-(2-methylpyridin-3-ylcarbonyloxy)phenyl]-8-(2-methoxyphenylaminomethyl)-1,3,3-trimethyl-3,4-dihydro-1H-quinoxalin-2-one] | 100 |
| COc1ccccc1NCc1c(-c2ccc(OC(=O)c3cscn3)cc2OC)ccc2c1N(C)C(=O)C(C)(C)N2 [Compound 21-13, 8-(2-Methoxyphenylaminomethyl)-7-[2-methoxy-4-(thiazol-4-ylcarbonyloxy)phenyl]-1,3,3-trimethyl-3,4-dihydro-1H-quinoxalin-2-one] | 94 |
| COc1cc(OC(=O)c2ccccc2C)ccc1-c1ccc2c(c1CNc1cc(F)ccc1C)N(C)C(=O)C(C)(C)N2 [Compound 21-22, 8-(5-Fluoro-2-methylphenylaminomethyl)-7-[2-methoxy-4-(2-methylbenzoyloxy)phenyl]-1,3,3-trimethyl-3,4-dihydro-1H-quinoxalin-2-one] | 100 |
| COc1ccc([N+](=O)[O-])cc1OCc1c(-c2ccc(OC(=O)c3ccccc3C)cc2OC)ccc2c1NC(=O)C(C)(C)N2 [Compound 22, 7-[2-Methoxy-4-(2-methylbenzoyloxy)phenyl]-8-(2-methoxy-5-nitrophenoxymethyl)-3,3-dimethyl-3,4-dihydro-1H-quinoxalin-2-one] | 100 |
